# Read-outs that look alike come from different tables or passages of the source.
# What was measured:
# [1] = test system: T. b. brucei procyclic trypanosomes (Lab 110 EATRO strain); assay: In vitro antitrypanosomal activity, procyclic trypanosomes in T2 medium; type: cell-based, Trypanosoma brucei brucei; conditions: 3-5 days
# Description: The antitrypanosomal effects of HETA and other nucleosides were examined in the Lab 110 EATRO strain of T. b. brucei in culture.
# Cells were cultured as described in Bacchi et al. Exp. Parasitol. 68, 392, 1989. Cells were then grown in the presence of the compounds for 3-5 days. Drugs were filtered, sterilized and added aseptically. Control cells achieved a maximum density of 1.5-3.5×10^7 /ml. Hemocytometer counts were made daily and the results were expressed as a percent of control growth. IC50 plots were obtained by graphing log (drug) vs. percent growth inhibition.
# Trypanocidal Activity of MTA and MTR Analogs
# against T. b. brucei procyclic trypanosomes in T2 medium.
# [2] = molecular target: T1, Mouse Liver MTA Phosphorylase (Mus musculus, UniProt Q9CQ65); assay: Mouse liver MTA phosphorylase substrate/inhibitor assay; type: biochemical; conditions: for Substrate (% Control): substrate activity relative to MTA
# T1 sequence (Q9CQ65 1-283): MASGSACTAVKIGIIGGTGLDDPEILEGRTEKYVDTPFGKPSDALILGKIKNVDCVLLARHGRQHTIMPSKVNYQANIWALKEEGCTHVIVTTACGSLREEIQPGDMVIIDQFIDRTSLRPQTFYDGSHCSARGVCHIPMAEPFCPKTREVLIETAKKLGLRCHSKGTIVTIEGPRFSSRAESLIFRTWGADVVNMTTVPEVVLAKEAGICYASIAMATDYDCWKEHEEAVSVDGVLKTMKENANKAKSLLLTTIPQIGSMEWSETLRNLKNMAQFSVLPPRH
# Description: ^a MTA phosphorylase activity was assayed as described in Sufrin et
# [3] = molecular target: T2, T. b. brucei MTA phosphorylase (Trypanosoma brucei, UniProt Q57XS4); assay: T. b. brucei MTA phosphorylase substrate assay; type: biochemical; conditions: for Percent Control Activity: relative to MTA
# T2 construct: MTA or analogs as substrates
# T2 sequence (Q57XS4 entry or part of it): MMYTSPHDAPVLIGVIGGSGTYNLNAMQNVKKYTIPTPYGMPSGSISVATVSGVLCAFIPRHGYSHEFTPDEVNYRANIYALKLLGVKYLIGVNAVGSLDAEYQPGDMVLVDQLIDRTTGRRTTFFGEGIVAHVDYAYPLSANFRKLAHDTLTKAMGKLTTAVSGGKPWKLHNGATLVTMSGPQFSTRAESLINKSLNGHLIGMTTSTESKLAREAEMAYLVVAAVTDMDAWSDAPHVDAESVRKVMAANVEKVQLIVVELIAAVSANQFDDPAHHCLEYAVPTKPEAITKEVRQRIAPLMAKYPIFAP
# Description: ^a MTA phosphorylase was assayed according to Ghoda et al., using 200
# μM MTA (saturating) or analogs as substrates. Specific activities of
# the dialyzed enzyme preparations were with 50 mM PO4, 104.97 n
# moles/mg protein/h; without PO4, 28.27 n moles/mg protein/h. Results
# are expressed as percent activity compared to as substrate with and
# without PO4, respectively.
# [4] = test system: L1210 cells (MTA phosphorylase-deficient); assay: Growth inhibition of L1210 cells; type: cell-based, mouse; conditions: L1210, 48 h
# Description: (§1) L1210, L5178Y and MOLT-4 cell lines were grown in RPMI 1640 and 10% Nu Serum (Collaborative Research Inc., Lexington, Mass.) and CCRF-CEM cells were grown in 10% Horse Serum (Gibco Laboratories, Grand Island, N.Y.) and maintained as previously described for suspension cultures by Pera et al. in Cancer Res. 46, 1148, 1986. Cell cultures (0.3×10^5 cells/ml) were treated with each compound at 0.1 to 1000 μM to determine the concentration that inhibited growth by 50% (IC50) at 48 hr for the L1210 and L5178Y cells and at 96 hr for the CCRF-CEM and MOLT-4 cells. The incubation times allowed approximately 4 cell doublings in each cell line. All compounds were freshly prepared prior to treatment by dissolving in DMSO and diluting in serum-free media. Cells were counted by electron particle counting (Model XF' Coulter Counter; Coulter Electronics, Hialeah, Fla.).
# (§2) For each compound, the concentrations required to inhibit cell growth by 50% (IC50 values) are shown in Table 7 for two murine leukemic cell lines, L1210 and L5178Y [MTA phosphorylase-deficient and MTA phosphorylase-containing, respectively] and two human leukemic cell lines, CCRF-CEM and MOLT-4 [MTA phosphorylase-deficient and MTA phosphorylase-containing, respectively]. ETA, MFETA, HETA and PTA had lower IC50 values in the L5178Y cells than in the L1210 cells. […] This differential is consistent with the possibility that, in L5178Y cells, MFETA is cleaved by MTA phosphorylase to the growth inhibitory metabolite, 5-monofluoroethylthioribose-1-phosphate (MFETR-1-P).
# [5] = test system: L5178Y cells (MTA phosphorylase-containing); assay: Growth inhibition of L5178Y cells; type: cell-based, mouse; conditions: 48 h
# Description: as §1, §2
# [6] = test system: CCRF-CEM cells (MTA phosphorylase-deficient); assay: Growth inhibition of CCRF-CEM cells; type: cell-based, human; conditions: 96 h
# Description: as §1, §2
# [7] = test system: MOLT-4 cells (MTA phosphorylase-containing); assay: Growth inhibition of MOLT-4 cells; type: cell-based, human; conditions: MOLT-4, 96 h
# Description: as §1, §2
# [8] = test system: Trichomonas vaginalis ATCC 3001; assay: Minimum lethal concentration against Trichomonas vaginalis, multiwell plate assay, ATCC 3001; type: cell-based
# From the text: (§3) Preliminary in vitro evaluation of HETA and other compounds against isolates of Trichomonas vaginalis was done.
# (§4) Values are expressed as μg of compound per ml of medium required to inhibit growth and motility of the parasite in a multiwell plate assay as described by Meingassner, Mieth, Czok, Lindmark and Muller (1978) Antimicrob. Agents and Chemother. 13, 1-3. The present drug used for treatment--metronidazole (Flagyl®) is included for comparison. Strain ATCC 50143 (CDC-85) was refractory to chemotherapeutic dose levels of metronidazole. (ND=not done).
# [9] = test system: Trichomonas vaginalis ATCC 50143 (CDC-85), metronidazole-resistant; assay: Minimum lethal concentration against Trichomonas vaginalis, multiwell plate assay, ATCC 50143 (CDC-85); type: cell-based
# From the text: as §3, §4
# P. falciparum = assay: In vitro antimalarial activity of HETA; type: cell-based, Plasmodium falciparum; conditions: for growth of the microorganism inhibited in an in vitro screen: P. falciparum in vitro screen
# [10] = test system: EATRO 110 strain of T. b. brucei; assay: Bloodstream forms of African trypanosomes grown in vitro, EATRO 110; type: cell-based; conditions: day 4
# Description: (§5) Cultures were initiated directly from infected mouse blood into Falcon 24 well plates containing 1 ml of Iscoves modified Dulbecco's medium plus 20% horse serum, 2 mM pyruvate, 2 mM glutamine, and 0.2 uM mercaptoethanol. Initial cell counts were 2.5-5.0×10^5 /ml. Plates were incubated at 37 C. in 5 percent CO2. HETA was dissolved in the medium and filter sterilized. One half the volume of each well was replaced with fresh medium each day.
# (§6) Cell counts were made daily. Data are given as percent inhibition of growth as determined by hemocytometer counts on day 4 as compared to control cultures without drug.
# (§7) In Table 2, EATRO 110 is a strain of T. b. brucei; and KETRI 2002, and KETRI 243 are T. b. rhodesiense clinical isolates.
# [11] = test system: KETRI 2002 T. b. rhodesiense clinical isolate; assay: Bloodstream forms of African trypanosomes grown in vitro, KETRI 2002; type: cell-based; conditions: day 4
# Description: as §5, §6, §7
# [12] = test system: KETRI 243 T. b. rhodesiense clinical isolate; assay: Bloodstream forms of African trypanosomes grown in vitro, KETRI 243; type: cell-based; conditions: day 4
# Description: as §5, §6, §7
# [13] = test system: T. b. brucei LAB 110 EATRO; assay: In vivo antitrypanosomal activity, LAB EATRO mouse infection model; conditions: miniosmotic pump
# Description: ^a Animals were treated with surgically implanted miniosmotic pumps
# loaded as per manufacturers instructions with MTA, HETA or MFETA suspende
structure (smiles),measurement,setting,value
N=C(N)c1ccc(N=NNc2ccc(C(=N)N)cc2)cc1 [BERENIL],IC50,[1]; Trypanosoma brucei,0.2 µM
"Nc1ncnc2c1ncn2[C@@H]1O[C@H](CSCCBr)[C@@H](O)[C@H]1O [BETA, 5'-deoxy-5'-(bromoethylthio)adenosine]",IC50,[1],0.5 µM
same,Ki,[2],6.5 µM
same,Substrate (% Control),[2],38 % Control
same,Percent Control Activity,"[3]; +50 mM PO4, 200 μM substrate",88.8%
same,Percent Control Activity,"[3]; No PO4, 200 μM substrate",120%
same,IC50,[4],150 µM
same,IC50,[5],150 µM
same,IC50,[6],250 ± 50 µM
same,IC50,[7],25 ± 10 µM
"Nc1ncnc2c1ncn2[C@@H]1O[C@H](CSCCCl)[C@@H](O)[C@H]1O [CETA, 5'-deoxy-5'-(chloroethylthio)adenosine]",IC50,[1],2.5 µM
same,Minimum lethal concentration (MLC),"[8]; ATCC 3001, 24 h",93.7 µg/mL
same,Minimum lethal concentration (MLC),"[8]; ATCC 3001, 48 h",23.4 µg/mL
same,Minimum lethal concentration (MLC),"[9]; ATCC 50143, 24 h",187.5 µg/mL
same,Minimum lethal concentration (MLC),"[9]; ATCC 50143, 48 h",11.7 µg/mL
same,activity against metronidazole(Flagyl)-resistant strain CDC-85,"[9]; CDC-85 strain, preliminary in vitro evaluation",active
same,Ki,[2],12 µM
same,Substrate (% Control),[2],35 % Control
same,Percent Control Activity,"[3]; +50 mM PO4, 200 μM substrate",60%
same,Percent Control Activity,"[3]; No PO4, 200 μM substrate",94.4%
same,IC50,[4],250 µM
same,IC50,[5],200 µM
same,IC50,[6],240 ± 90 µM
same,IC50,[7],30 ± 20 µM
"CCSC[C@H]1O[C@@H](n2cnc3c(N)ncnc32)[C@H](O)[C@@H]1O [ETA, reference compound]",IC50,[1]; Trypanosoma brucei,138 µM
same,growth of the microorganism inhibited in an in vitro screen,P. falciparum,inhibited
same,Substrate (% Control),[2],95 % Control
same,Percent Control Activity,"[3]; +50 mM PO4, 200 μM substrate",76.2%
same,Percent Control Activity,"[3]; No PO4, 200 μM substrate",100%
same,IC50,[4]; Mus musculus,800 ± 100 µM
same,IC50,[5]; Mus musculus,250 ± 100 µM
same,IC50,[6]; Homo sapiens,200 ± 100 µM
same,IC50,[7]; Homo sapiens,20 ± 10 µM
"Nc1ncnc2c1ncn2[C@@H]1O[C@H](CSCCO)[C@@H](O)[C@H]1O [HETA, 5'-deoxy-5'-(hydroxyethylthio)adenosine]",IC50,[1]; Trypanosoma brucei,0.5 µM
same,percent inhibition of growth,[10]; 0.1 um HETA,0%
same,percent inhibition of growth,[10]; 0.5 um HETA,44%
same,percent inhibition of growth,[10]; 1.0 um HETA,59%
same,percent inhibition of growth,[10]; 2.25 um HETA,70%
same,percent inhibition of growth,[11]; 0.1 um HETA,0%
same,percent inhibition of growth,[11]; 0.5 um HETA,0%
same,percent inhibition of growth,[11]; 1.0 um HETA,15%
same,percent inhibition of growth,[11]; 2.25 um HETA,60%
same,percent inhibition of growth,[12]; 0.1 um HETA,0%
same,percent inhibition of growth,[12]; 0.5 um HETA,0%
same,percent inhibition of growth,[12]; 1.0 um HETA,0%
same,percent inhibition of growth,[12]; 2.25 um HETA,0%
same,% Cured,"[13]; 25 mg/kg/day, 7 days",73%
same,MSD (mean survival in days of animals dying of infection),"[13]; 25 mg/kg/day, 7 days",15.3 days
same,Number Cured Total,"[13]; 25 mg/kg/day, 7 days",11/15
same,% Cured,"[13]; 50 mg/kg/day, 7 days",68%
same,MSD (mean survival in days of animals dying of infection),"[13]; 50 mg/kg/day, 7 days",14.5 days
same,Number Cured Total,"[13]; 50 mg/kg/day, 7 days",17/25
same,% Cured,"[13]; 50 mg/kg/day, 14 days",60%
same,MSD (mean survival in days of animals dying of infection),"[13]; 50 mg/kg/day, 14 days",18.1 days
same,Number Cured Total,"[13]; 50 mg/kg/day, 14 days",9/15
same,% Cured,"[13]; 100 mg/kg/day, 7 days",87%
same,MSD (mean survival in days of animals dying of infection),"[13]; 100 mg/kg/day, 7 days",26.0 days
same,Number Cured Total,"[13]; 100 mg/kg/day, 7 days",13/15
same,% Cured,"[13]; 150 mg/kg/day, 7 days",90%
same,MSD (mean survival in days of animals dying of infection),"[13]; 150 mg/kg/day, 7 days",14.5 days
same,Number Cured Total,"[13]; 150 mg/kg/day, 7 days",18/20
same,activity against the C1-NIH strain,"[8]; C1-NIH strain, preliminary in vitro evaluation",displays activity
same,growth of the microorganism inhibited in an in vitro screen,P. falciparum,inhibited
same,IC50,"P. falciparum; Plasmodium falciparum, P. falciparum in vitro",~22 µM
same,Ki,"[2]; mouse liver MTA phosphorylase, read-out: K1",26 µM
same,Substrate (% Control),[2],34 % Control
same,Percent Control Activity,"[3]; +50 mM PO4, 200 μM substrate",85%
same,Percent Control Activity,"[3]; No PO4, 200 μM substrate",100%
same,metabolism by T. b. brucei MTA phosphorylase,[3]; compared with MTA,as effectively as MTA itself
same,IC50,[4]; Mus musculus,1000 µM
same,IC50,[5]; Mus musculus,500 µM
same,IC50,[6]; Homo sapiens,100 µM
same,IC50,[7]; Homo sapiens,40 µM

# From patent US5563125A, “5'-deoxy-5'-(substituted)alkylthioribose compounds and their pharmaceutical compositions” (priority 1992, dated 1996)
